In PubChem BioAssay (NCI):
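1) Cells in 96-well plates. 2) Compound, 48 h, 5 concentrations. 3) Linear interpolation between surrounding doses. 4) Unreached endpoint = highest concentration. GI50: concentration for 50% inhibition of growth. The concentration for full growth arrest is given as TGI.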

Assays:
Experiment in all cases: inhibition of tumour cell growth, NCI panel, 48 h
[1] = system: 786-0 renal
[2] = system: A549 NSCLC
[3] = system: CAKI-1 renal
[4] = system: CCRF-CEM leukemia
[5] = system: HCT-15 colon
[6] = system: MDA-MB-435
[7] = system: NCI-H460 lung
[8] = system: SF-295 CNS
[9] = system: SF-539 CNS
[10] = system: UO-31 renal

Row | Structure (SMILES) | TGI [1] [µM] | TGI [2] [µM] | TGI [3] [µM] | TGI [4] [µM] | TGI [5] [µM] | TGI [6] [µM] | TGI [7] [µM] | TGI [8] [µM] | TGI [9] [µM] | TGI [10] [µM] | GI50 [1] [µM] | GI50 [2] [µM] | GI50 [3] [µM] | GI50 [4] [µM] | GI50 [5] [µM] | GI50 [6] [µM] | GI50 [7] [µM] | GI50 [8] [µM] | GI50 [9] [µM] | GI50 [10] [µM]
1 | C=C(C)C1Cc2cc(C(C)=O)ccc2O1 (centres undefined) | > 100 | > 100 | > 100 | > 100 | > 100 | > 100 | > 100 | > 100 | > 100 | > 100 |  |  |  |  |  |  |  |  |  | 
2 | O=C(O)c1ccccc1C(=O)Nc1cc2c(cc1Br)-c1ccccc1C2=O | > 100 | > 100 | > 100 | > 100 | > 100 | > 100 | > 100 |  | > 100 | > 100 |  |  |  |  |  |  |  |  |  | 
3 | Nc1nc(N)c2cc(S(=O)(=O)c3ccccc3)ccc2n1 | > 100 | > 100 | > 100 | > 100 | > 100 | > 100 | > 100 | 51.9 | > 100 | > 100 | 1.01 | 0.622 | 3.45 | 2.93 | 1.75 | 0.487 | 0.417 | 0.792 | 2.05 | 13.3
4 | CSc1ccc(NC(=O)CCl)cc1 | > 10 | 5.79 | > 10 | > 10 | > 10 | > 10 | > 10 | 5.1 | > 10 | 9.79 |  |  |  |  |  |  |  |  |  | 
5 | CC(=O)OCCC/C(=C/c1cc2ccccc2c2ccccc12)[N+](=O)[O-] | 3.05 | 3.74 | 2.51 | > 25.3 | 2.62 | 3.16 | 3.14 | 2.32 | 2.86 | 2.3 | 1.68 | 1.84 | 1.21 | 2.52 | 1.3 | 1.46 | 1.71 | 0.977 | 1.53 | 1.09
6 | C=CC(=O)N1CCC(CNc2ncnc(N)c2-c2ccc(Oc3ccccc3)cc2)CC1 | 92.9 | > 100 | > 100 | > 100 | > 100 | 97.5 | > 100 | > 100 | 71 | 49.2 | 17.7 | 34.3 | 22.5 | 27.2 | 26.6 | 27.9 | 34.8 | 29 | 20.6 | 8.63
7 | COc1ccc2cn3c4ccc(O)cc4[nH]c(=O)c3c2c1 | 13.4 | 18.1 | 17 | 12.2 | 13.2 | 0.0692 | 10.8 | 12.9 | 12.5 | 15.1 | 0.278 | 0.231 | 0.179 | 0.0845 | 0.0438 | 0.0248 | 0.114 | 0.129 | 0.104 | 0.456
